Experimental data reported in patent publication US20090075867A1, “Triazine compounds and compositions thereof for the treatment of cancers” (priority 2005, published 2009).
Read-outs that look alike come from different tables or passages of the source.

How the values were obtained:
[1] = tested on: PBML, Peripheral Blood Mononuclear Leukocytes; assay: In vitro cytotoxicity (MTT) on PBML; type: cell-based; conditions: Leukocyte
Protocol: (§1) This assay was performed to determine the effect of compounds of the present invention on cell cytotoxicity. Cells were incubated in presence or absence of compounds in their respective conditioned media. […] The supernatant was discarded and 100 μl of dimethylsulfoxide (DMSO) was added. Absorbance was read at […] with an ELISA Tecan SUNRISE™ plate reader. The control group consisted of cells without compounds and is referred to as 100% of viable cells. IC50 was determined using PRISM® software.
(§2) The predictive utility of cell-based cytotoxicity assays to assess the potential in vivo anticancer activity of compounds with selected cancer cell lines is well established in the art and the use of whole cells, instead of isolated protein receptors or enzymes, provides a more reliable determination of activity. See, for example, Paull et al. J. Natl. Cancer Inst. 81:1088-1092 (1989); Monks et al. J. Natl. Cancer Inst. 83:757-766 (1991); Bandes et al. J. Natl. Cancer Inst. 86:770-775 (1994); and Kamate et al. Intl. J. Cancer 100:571-579 (2002).

[2] = tested on: NHDF, Normal Human Dermal Fibroblast; assay: In vitro cytotoxicity (MTT) on NHDF; type: cell-based
Protocol: as §1, §2

[3] = tested on: CAKI-2, human kidney cell; assay: In vitro cytotoxicity (MTT) on CAKI-2; type: cell-based
Protocol: as §1, §2

Hep-G2, human liver cell = assay: In vitro cytotoxicity (MTT) on Hep-G2; type: cell-based
Protocol: as §1, §2

[4] = tested on: PC-3, human prostate carcinoma cell; assay: In vitro cytotoxicity (MTT) on PC-3; type: cell-based
Protocol: as §1, §2

[5] = tested on: B16F10, murine melanoma cell; assay: In vitro cytotoxicity (MTT) on B16F10; type: cell-based; conditions: Mus musculus, B16-F10
Protocol: as §1, §2

DA-3 = assay: In vitro cytotoxicity (MTT) on DA-3; type: cell-based, BALB/c mice; conditions: Mus musculus
Protocol: as §1, §2
The syngeneic tumor DMBA3 (DA-3, breast carcinoma model) arose from a preneoplastic lesion treated with 7,12-dimethylbenzanthracene in female BALB/c mice. DA-3 cells were grown as monolayer cultures in plastic flasks in RPMI-1640 containing 0.1 mM nonessential amino acids, 0.1 μM sodium pyruvate, 2 mM L-glutamine. This was further supplemented with 50 μM 2-mercaptoethanol and 10% fetal bovine serum. The DA-3 tumors were serially passage in vivo by intradermal inoculation of 5×10^5 viable tumor cells to produce localized tumors in 6- to 8-week old BALB/c mice. The animals were then serially monitored by manual palpation for evidence of tumor. Mice were treated at day 11, 18 and 25 with cyclophosphamide (100 mg/kg) and at day 11, 12, 13, 15, 18, 20, 22, 25, 27 and 29 with compound 1, 2, 3 or 8 (50 mg/kg). Mice were sacrificed at day 43. Serial tumor volume was obtained by bi-dimensional diameter measurements with calipers, using the formula 0.4 (a×b^2) where “a” was the major tumor diameter and “b” the minor perpendicular diameter. […] The National Cancer Institute (USA) defines the product as effective if T/C is ≦40%.

[6] = tested on: P815, murine mastocytoma cell; assay: In vitro cytotoxicity (MTT) on P815; type: cell-based; conditions: Mus musculus
Protocol: as §1, §2

B16F10 lung metastases = type: in vivo
Protocol: Female 6-8-week old C57BL/6 mice were injected intravenously on day 0 with 1-2.5×10^5 B16F10 melanoma cells from ATCC (source of cell culture, Dr. I. J. Fidler). B16F10 melanoma cells are a highly metastatic cell line which preferentially forms nodules in the lungs. Cells were cultured in DMEM supplemented with 10% fetal bovine serum. […] Fourteen days after inoculation, mice were sacrificed and their lungs were removed, rinsed in PBS, and placed in Bouin's fixative. The number of metastatic nodules (black colonies) on the surface of the lungs were counted.

[7] = FIG. 3, 50 mg/kg i.v. on day -3, -2, -1, 3, 5 and 7, p<0.001

Row | SMILES | IC50 ([1]; 24-hour cell culture) [µM] | IC50 ([1]; 72-hour cell culture) [µM] | IC50 ([2]; 24-hour cell culture) [µM] | IC50 ([2]; 72-hour cell culture) [µM] | IC50 ([3]; 24-hour cell culture) [µM] | IC50 ([3]; 72-hour cell culture) [µM] | IC50 (Hep-G2, human liver cell; HepG2, 24-hour cell culture) [µM] | IC50 (Hep-G2, human liver cell; HepG2, 72-hour cell culture) [µM] | IC50 ([4]; 24-hour cell culture) [µM] | IC50 ([4]; 72-hour cell culture) [µM] | IC50 ([5]; 24-hour cell culture) [µM] | IC50 ([5]; 72-hour cell culture) [µM] | IC50 (DA-3; 24-hour cell culture) [µM] | IC50 (DA-3; 72-hour cell culture) [µM] | IC50 ([6]; 24-hour cell culture) [µM] | IC50 ([6]; 72-hour cell culture) [µM] | inhibition of the number of tumor nodules in lungs (B16F10 lung metastases; [7]) | inhibition of the number of tumor nodules in lungs (B16F10 lung metastases; FIG. 5, p<0.05) [%] | reduction of the number of tumor nodules (B16F10 lung metastases; FIG. 4, used alone, compound 50 mg/kg i.v., doxorubicin 1 mg/kg) [%]
1 | Oc1ccc(CCNc2nc(NCCNc3nc(NCCc4ccc(O)cc4)nc(Nc4ccccc4)n3)nc(Nc3ccccc3)n2)cc1 [Compound 1] | 98 | 45 | > 100 | 16 | > 40 | 15 | 19 | 23 | 8.3 | 8.3 | 6 | 6 | 4 | 4.2 | 34 | 34 | significant inhibition | – | –
2 | Nc1ccc(CCNc2nc(NCCNc3nc(NCCc4ccc(N)cc4)nc(Nc4cccc(N)c4)n3)nc(Nc3cccc(N)c3)n2)cc1 [Compound 3] | > 100 | > 100 | > 100 | > 100 | > 40 | – | > 40 | – | > 100 | 15 | 4 | 6 | – | – | 33 | 3 | – | – | –
3 | Nc1cccc(Nc2nc(N)nc(Nc3cccc(Nc4nc(N)nc(Nc5cccc(N)c5)n4)c3)n2)c1 [Compound 5] | > 100 | > 100 | > 100 | 78 | – | – | – | – | 50 | 26 | 8.5 | 39 | 20 | – | > 100 | 44.7 | – | – | –
4 | Nc1cccc(Nc2nc(NCCO)nc(Nc3cccc(Nc4nc(NCCO)nc(Nc5cccc(N)c5)n4)c3)n2)c1 [Compound 6] | > 100 | > 100 | > 100 | > 100 | – | – | – | – | 63 | – | 2.6 | – | 30 | – | > 100 | > 100 | – | – | –
5 | CC(Nc1nc(Nc2cccc(N)c2)nc(Nc2cccc(N)c2)n1)c1cccc(N)c1 (centres unmarked) [Compound 10] | > 100 | > 100 | > 100 | > 100 | – | – | – | – | 74 | – | 62 | 36 | > 100 | – | > 100 | 36.6 | significant inhibition | – | –
6 | Nc1cccc(Nc2nc(NCCO)nc(Nc3cccc(Nc4nc(NCCO)nc(Nc5cccc(F)c5)n4)c3)n2)c1 [Compound 14] | – | – | – | – | – | – | – | – | 29.9 | 15.6 | 2.6 | 10.2 | – | – | 13.1 | 7.8 | – | 50 | –
7 | Nc1cccc(Nc2nc(NCCO)nc(Nc3ccc(Nc4nc(NCCO)nc(Nc5cccc(F)c5)n4)cc3)n2)c1 [Compound 19] | – | – | 19.4 | – | – | – | – | – | 8.2 | 5.7 | 2.8 | 6.2 | 4.5 | 13.4 | 16.4 | 8.6 | – | – | –
8 | COc1cccc2c1C(=O)c1c(O)c3c(c(O)c1C2=O)C[C@@](O)(C(=O)CO)C[C@@H]3O[C@H]1C[C@H](N)[C@H](O)[C@H](C)O1 [doxorubicin, reference compound] | – | – | – | – | – | – | – | – | – | – | – | – | – | – | – | – | – | – | 90
